Each structure is given as a SMILES string.

One experiment deals with KURAMOCHI cells. Put plainly: Inhibition of proliferation of KURAMOCHI cells (CellTiter-Glo, intracellular ATP). It is filed as cell-based. To be noted: 168 h, incubated for 7 days, read-out: IC50 against KURAMOCHI cells. On the procedure: In this experiment, the inhibitory effect of the compounds of the present disclosure on the proliferation of the cancer cell line KURAMOCHI was evaluated by measuring intracellular ATP levels using a bioluminescent assay, and the half maximal inhibitory concentration (IC50) was determined.
RPMI 1640 medium (Cat. No. 11875-093), fetal bovine serum (10099-141), and 100× Pen/Strep (15070-063) were purchased from GIBCO. CellTiter-Glo Luminescent Cell Viability Assay reagent (Cat. No. G7573) was purchased from Promega.
• 1) Day 1: KURAMOCHI cells were counted using a cell counter and seeded into a 96-well culture plate at a density of 4000 cells per well in 100 µL medium. The plate was incubated overnight in an incubator (37°C, 5% CO2). • 2) Day 2: Using a D300e digital dispenser (TECAN), 500 nL of serially diluted test compounds of the present disclosure (starting at 10 µM, a total of 9 concentrations, 1:4 dilution) were added to the cells in the culture plate. The final concentration of DMSO was 0.5%. The cell culture plate was incubated for 7 days in a cell culture incubator (37°C, 5% CO2). Control group 1 received only medium and DMSO (100% inhibition group). Control group 2 received only DMSO (0% inhibition group). The final concentration of DMSO in both groups was 0.5%. • 3) Day 9: 100 µL of CellTiter-Glo reagent was added to each well. The plate was shaken at 500 rpm for 2 minutes, centrifuged at 1000 rpm for 1 minute, and then incubated at room temperature in the dark for 10 minutes to stabilize the luminescence signal. • 4) Luminescence signals were measured using an EnVision microplate reader (PerkinElmer). • 5) Data analysis was performed using GraphPad Prism 8. The IC50 values of the compounds of the present disclosure were calculated as follows. The CTG signal values were analyzed. The average inhibition rate of control group 1 (100% inhibition group) was set as the relative inhibition rate of 100%. The average inhibition rate of control group 2 (0% inhibition group) was set as the relative inhibition rate of 0%. The CTG signal values were converted into relative inhibition rates. The inhibition percentage (inhibition%) for each concentration of the compounds of the present disclosure was calculated according to the following formula: Inhibition% = (b−x)/(b−a)*100%; [formula] • a = CTG value (highest concentration), b = CTG value (blank well), x = CTG value (test well). • IC50 was calculated using GraphPad Prism 8. • (1) The concentration and inhibition rate corresponding to each well were recorded. Statistical calculation was performed using Log10 (compound concentration). • (2) The data were input into GraphPad Prism 8 and Analysis was selected. • (3) Nonlinear regression (curve fit) was selected. • (4) Log (inhibitor) vs. response - Variable slope was selected. • (5) The calculation formula was selected, and the calculation was performed according to the following formula: Y = Bottom + (Top - Bottom) / (1 + 10 ^ ((LogIC50 - X) * HillSlope)); X: log of dose or concentration; Y: response; Top and Bottom: maximum and minimum response. • (6) The IC50 values were calculated by fitting the data. Table 16: Inhibitory effect of the compounds of the present disclosure on the proliferation of KURAMOCHI cells
A general note: ATP-based viability assays read luminescence as a measure of living cells.

Another experiment has as its target T1, PARG (Homo sapiens, UniProt Q86W56).
T1 construct: made in house
The experiment in a line: Enzymatic inhibitory activity against PARG, HTRF assay. It counts as biochemical. The settings on record: HTRF; PARylated PARP1 protein as substrate; 60 minutes at room temperature; read-out: IC50 against PARG enzyme. Here is the method: In this experiment, the enzymatic inhibitory activity of the compounds of the present disclosure against PARG was determined using an HTRF (homogeneous time-resolved fluorescence) assay.
HTRF assay reagents were purchased from PerkinElmer (Cat. Nos. 61HISTLB and 610SAXLB). The purified protein was prepared in-house.
PARG enzyme reaction buffer: 50 mM Tris (pH 7.4), 0.1 mg/mL BSA, 3 mM EDTA, 0.4 mM EGTA, 1 mM DTT, 50 mM KCl, and 0.01% Tween 20.
• 1) Using an ultra-micro pipette, the compounds of the present disclosure were serially diluted (starting at 10 µM with 3- to 5-fold serial dilutions) and added to a 384-well reaction plate, with each concentration tested in duplicate wells. Control group 1 was added with 10 µM control compound (100% inhibition group). Control group 2 was added with DMSO (0% inhibition group). After compound addition, the 384-well plate was centrifuged at 1000 rpm for 1 minute. • 2) 2.5 µL of PARG protein was added to each well and incubated with the compounds of the present disclosure at room temperature for 15 minutes, followed by centrifugation at 1000 rpm for 1 minute. • 3) 2.5 µL of PARylated PARP1 protein was added to each well and incubated at room temperature for 60 minutes, followed by centrifugation at 1000 rpm for 1 minute. • 4) 5 µL of His-Tb & SA-XL665 HTRF assay reagents were added to each well and incubated at room temperature for 60 minutes, followed by centrifugation at 1000 rpm for 1 minute. • 5) […] were measured using a PHERAstar FSX microplate reader from BMG. • 6) Data analysis was performed using GraphPad Prism 8. The IC50 values of the compounds of the present disclosure were calculated as follows. […] The average value of duplicate wells in control group 2 (0% inhibition group) was set as the relative inhibition rate of 0%. The HTRF signal values were converted into relative inhibition rates. The IC50 values of the compounds were calculated by fitting the data to a four-parameter logistic model. Table 15: Enzymatic inhibitory activity of the compounds of the present disclosure against PARG
(In general: Time-resolved FRET reads energy transfer from a long-lived donor to a nearby acceptor.)

T1 sequence (Q86W56 whole entry): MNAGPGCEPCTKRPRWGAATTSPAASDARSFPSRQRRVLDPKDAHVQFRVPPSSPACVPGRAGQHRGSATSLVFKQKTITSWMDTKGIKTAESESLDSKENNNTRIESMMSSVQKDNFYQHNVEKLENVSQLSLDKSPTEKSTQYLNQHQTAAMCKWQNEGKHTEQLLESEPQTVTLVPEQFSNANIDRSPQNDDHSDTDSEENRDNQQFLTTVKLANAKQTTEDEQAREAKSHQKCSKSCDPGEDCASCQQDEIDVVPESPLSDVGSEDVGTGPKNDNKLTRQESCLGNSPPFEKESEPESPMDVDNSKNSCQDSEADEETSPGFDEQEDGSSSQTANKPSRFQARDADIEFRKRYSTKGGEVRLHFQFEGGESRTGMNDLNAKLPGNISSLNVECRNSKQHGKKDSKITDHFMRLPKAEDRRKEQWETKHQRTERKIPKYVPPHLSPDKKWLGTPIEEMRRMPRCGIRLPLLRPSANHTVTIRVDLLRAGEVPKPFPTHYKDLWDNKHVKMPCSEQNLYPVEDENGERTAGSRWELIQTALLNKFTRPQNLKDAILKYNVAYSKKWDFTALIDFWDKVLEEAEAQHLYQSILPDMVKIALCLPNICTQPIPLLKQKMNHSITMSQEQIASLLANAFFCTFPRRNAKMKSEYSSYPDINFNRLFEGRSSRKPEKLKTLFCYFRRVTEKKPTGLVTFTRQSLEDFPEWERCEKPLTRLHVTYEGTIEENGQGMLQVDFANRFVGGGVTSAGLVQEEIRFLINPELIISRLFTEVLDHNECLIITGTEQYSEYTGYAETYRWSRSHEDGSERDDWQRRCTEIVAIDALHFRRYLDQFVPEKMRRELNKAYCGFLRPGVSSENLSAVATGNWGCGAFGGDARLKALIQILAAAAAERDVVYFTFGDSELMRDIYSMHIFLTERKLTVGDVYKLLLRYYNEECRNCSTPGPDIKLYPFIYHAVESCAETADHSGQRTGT

Regarding `C[C@H]1CN(c2cc(S(=O)(=O)NC3(C)CC3)cc3c(-c4nnc(C(F)F)s4)noc23)C[C@H](C)N1` [Compound 021B], in the experiment on KURAMOCHI cells, the IC50 was found to be 11 nM.

For the compound `CC(C)S(=O)(=O)N1CCN(c2cc(S(=O)(=O)NC3(C#N)CC3)cc3c2nc(OC2CC2)n3-c2nnc(C(F)F)s2)CC1` [Compound 057P], at PARG, the IC50 came to 29.3 nM.

Take `C=CCn1c(=O)n(-c2nnc(C(F)F)s2)c2cc(S(=O)(=O)NC3(C#N)CC3)cc(N3CCN(c4ncc[nH]4)CC3)c21` [Compound 067JD]: the IC50 on PARG came out at 31.6 nM.

On to `C=CCn1c(=O)n(-c2nnc(C(F)F)s2)c2cc(S(=O)(=O)NC3(C#N)CC3)cc(N3CCN(C(=O)NC)CC3)c21` [Compound 067M], for which the IC50 at PARG worked out at 29 nM.

Regarding `C=CCn1c(=O)n(-c2nnc(C(F)F)s2)c2cc(S(=O)(=O)NC3(C#N)CC3)cc(N3CCN(C(=O)C(C)C)[C@H](C)C3)c21` [Compound 069D], the IC50 at PARG stood at 23.5 nM.

Turning to `C=CCn1c(=O)n(-c2nnc(C(F)F)s2)c2cc(S(=O)(=O)NC3(C#N)CC3)cc(N3CC4CC3CN4S(=O)(=O)C(C)C)c21` (centres unmarked) [Compound 069E], the IC50 with KURAMOCHI cells is 55 nM.

Turning to `C=CCn1c(=O)n(-c2nnc(C(F)F)s2)c2cc(S(=O)(=O)NC3(C#N)CC3)cc(N3CCN(C(=O)C4CC(F)(F)C4)CC3)c21` [Compound 072D], in the experiment on KURAMOCHI cells, the IC50 is 52 nM.

As for `CC(C)C(=O)N1CCN(c2cc(S(=O)(=O)NC3(C#N)CC3)cc3c2n(CC#N)c(=O)n3-c2nnc(C(F)F)s2)CC1` [Compound 074J], the IC50 at PARG amounted to 10.8 nM.

In the case of `C=CCn1c(=O)n(-c2nnc(C(F)F)s2)c2cc(S(=O)(=O)NC3(C#N)CC3)cc(N3CCN(S(=O)(=O)c4ccn(C)n4)CC3)c21` [Compound 075B], the IC50 at PARG is 35.7 nM.

Take `C=CCn1c(=O)n(-c2nnc(C(F)F)s2)c2cc(S(=O)(=O)NC3(C#N)CC3)cc(N3CCN(C(=O)C(C)(C)NC(=O)OC)CC3)c21` [Compound 076A]: the IC50 on PARG worked out at 13 nM.

In the case of `C=CCn1c(=O)n(-c2nnc(C(F)F)s2)c2cc(S(=O)(=O)NC3(C#N)CC3)cc(N3CCN(C(=O)C4(C)CCCN4)CC3)c21` (centres unmarked) [Compound 076B], the IC50 at PARG was determined as 9.7 nM.

Turning to `C=CCn1c(=O)n(-c2nnc(C(F)F)s2)c2cc(S(=O)(=O)NC3(C#N)CC3)cc(N3CCN(C(=O)C4CCCN4)CC3)c21` (centres unmarked) [Compound 076C], at PARG, the IC50 is 8.6 nM.

As to `C=CCn1c(=O)n(-c2nnc(C(F)F)s2)c2cc(S(=O)(=O)NC3(C#N)CC3)cc(N3CCN(C(=O)C4CCCN4C)CC3)c21` (centres unmarked) [Compound 076D], the IC50 at PARG was determined as 14.7 nM.

As to `C=CCn1c(=O)n(-c2nnc(C(F)F)s2)c2cc(S(=O)(=O)NC3(C#N)CC3)cc(N3CCN(C(=O)[C@@H]4CCC5(CC5)N4)CC3)c21` [Compound 076F1], the IC50 at PARG was 30.6 nM.

`C=CCn1c(=O)n(-c2nnc(C(F)F)s2)c2cc(S(=O)(=O)NC3(C#N)CC3)cc(N3CCN(C(=O)C4CCC(=O)N4)CC3)c21` (centres unmarked) [Compound 076G]: the IC50 on PARG is 9 nM.

For the compound `C[C@H]1CN(c2cc(S(=O)(=O)NC3(C#N)CC3)cc3c2nc(C2CCCO2)n3-c2nnc(C(F)F)s2)C[C@H](C)N1` (some centres unmarked) [Compound 077J], the half-inhibitory concentration (IC50) at PARG turned out to be 10.4 nM.

For `C[C@H]1CN(c2cc(S(=O)(=O)NC3(C)COC3)cc3c2nc(C2CCCO2)n3-c2nnc(C(F)F)s2)C[C@H](C)N1` (some centres unmarked) [Compound 077K], at PARG, the IC50 was determined as 12.8 nM.

As for `C[C@H]1CN(c2cc(S(=O)(=O)NC3(C)CC3)cc3c2nc(-c2nccs2)n3-c2nnc(C(F)F)s2)C[C@H](C)N1` [Compound 077S], the half-maximal inhibitory concentration (IC50) with KURAMOCHI cells turned out to be 58 nM.

With `C[C@H]1CN(c2cc(S(=O)(=O)NC3(C)CC3)cc3c2nc(C2CNCCO2)n3-c2nnc(C(F)F)s2)C[C@H](C)N1` (some centres unmarked) [Compound 077Y], the IC50 at PARG came out at 10.3 nM.

With `C=CC1CN(c2cc(S(=O)(=O)NC3(C)CC3)cc3c2cnn3-c2nnc(C(F)F)s2)C[C@H](C)N1` (some centres unmarked) [Compound 078A], the IC50 in the experiment with KURAMOCHI cells came to 30 nM.

Consider `C#CC1CN(c2cc(S(=O)(=O)NC3(C)CC3)cc3c2cnn3-c2nnc(C(F)F)s2)C[C@H](C)N1` (some centres unmarked) [Compound 078B], for which the IC50 with KURAMOCHI cells amounted to 34 nM.

With `C[C@H]1CN(c2cc(S(=O)(=O)NC3(C)CC3)cc3c2nc([C@@H]2CC4(CC4)CO2)n3-c2nnc(C(F)F)s2)C[C@H](C)N1` [Compound 079M2], on PARG, the IC50 came out at 1.9 nM.

With `C[C@H]1CN(c2cc(S(=O)(=O)NC3(C)CC3)cc3c2nc(C2CCOC2)n3-c2nnc(C(F)F)s2)C[C@H](C)N1` (some centres unmarked) [Compound 079N], the IC50 on PARG was 6.2 nM.

With `C[C@H]1CN(c2cc(S(=O)(=O)NC3(C)CC3)cc3c2cc(N=S(C)(C)=O)n3-c2nnc(C(F)F)s2)C[C@H](C)N1` [Compound 082E], the IC50 on PARG turned out to be 5.5 nM.

Turning to `CN(C)C(=O)N1CCN(c2cc(S(=O)(=O)NC3(C#N)CC3)cc3c2n(CC(F)(F)F)c(=O)n3-c2nnc(C(F)F)s2)CC1` [Compound A044], the IC50 on PARG worked out at 7 nM.

On to `C=CCn1c(=O)n(-c2nnc(C(F)F)s2)c2cc(S(=O)(=O)NC3(C#N)CC3)cc(N3CCN(C(=O)NC4CC4)CC3)c21` [Compound A054], for which the IC50 at PARG was 38.6 nM.

Take `CC(C)C(=O)N1CCN(c2cc(S(=O)(=O)NC3(C#N)CC3)cc3c2n(C2CC2)c(=O)n3-c2nnc(C(F)F)s2)CC1` [Compound A055]: the IC50 on PARG turned out to be 11.9 nM.

For `CC(C)S(=O)(=O)N1CCN(c2cc(S(=O)(=O)NC3(C#N)CC3)cc3c2n(C2CC2)c(=O)n3-c2nnc(C(F)F)s2)CC1` [Compound A056], on PARG, the IC50 stood at 5.2 nM.

For the compound `C[C@H]1CN(c2cc(S(=O)(=O)NC3(C)CC3)cc3c2ncn3-c2nnc(C(F)F)s2)C[C@H](C)N1` [Compound B004], the IC50 on PARG is 15.6 nM.

For the compound `C[C@H]1CN(c2cc(S(=O)(=O)NC3(C)CC3)cc3c2ncn3-c2nnc(C(F)F)s2)C[C@H](C)N1C(=O)N(C)C` [Compound B005], the IC50 at PARG amounted to 11.5 nM.

Consider `CC(C)(O)C(=O)N1CCN(c2cc(S(=O)(=O)NC3(C#N)CC3)cc3c2ncn3-c2nnc(C(F)F)s2)CC1` [Compound B015], for which, at PARG, the IC50 worked out at 15.8 nM.

Turning to `CN(C)C(=O)N1CC=C(c2cc(S(=O)(=O)NC3(C#N)CC3)cc3c2ncn3-c2nnc(C(F)F)s2)CC1` [Compound B022], the IC50 at PARG amounted to 18.7 nM.

As to `CC(C)C(=O)N1CC=C(c2cc(S(=O)(=O)NC3(C#N)CC3)cc3c2ncn3-c2nnc(C(F)F)s2)CC1` [Compound B023], the IC50 at PARG worked out at 16.7 nM.

For the compound `C[C@H]1CN(c2cc(S(=O)(=O)NC3(C)CC3)cc3c2n2ccnc2n3-c2nnc(C(F)F)s2)C[C@H](C)N1` [Compound B024], the IC50 at PARG turned out to be 16.5 nM.

As to `C[C@H]1CN(c2cc(S(=O)(=O)NC3(C)CC3)cc3c2c2nccnc2n3-c2nnc(C(F)F)s2)C[C@H](C)N1` [Compound H001], the IC50 at PARG was found to be 1.1 nM.

Usually IC50 stands for the point on the concentration scale where inhibition reaches its midpoint.

These data come from patent publication EP4800013A1, “PARG INHIBITOR” (Shanghai Qilu Pharmaceutical Research and Development …, priority 2023, dated 2025).
